Earlier results, collected in patent publication US20150335679A1, “Methods and Compositions for Treating Malignancies with Dendritic Cells” (Kiromic, LLC, priority 2014, published 2015).
Like-named read-outs stand apart in the source and are kept apart here.

Assays:
Treg = settings: low-dose
[1] = system: Tregs; breast tumor-reactive T cells
[2] = 50 mg orally daily for 3 months

For `O=P1(N(CCCl)CCCl)NCCCO1` (stereo not drawn) [CYP, cyclophosphamide], the “Treg number and functionality” value (Treg) is given as “decreases”, the “course of Tregs” value [1, 2] is given as “remained decreased until day 42, returning to pretreatment levels by day 84” and the “time to reduction of Tregs” value [1, 2] is given as no more than 14 days. For the same compound, the “patients with endogenous breast tumor-reactive T cells” value ([1]; day 14, 27% before CYP treatment) was 73%, the “patients with endogenous breast tumor-reactive T cells” value ([1]; day 42) was 80% and the “patients with endogenous breast tumor-reactive T cells” value ([1]; day 84) was 88%. For the same compound, the Treg suppressor function (Tregs; 250 mg/m^2) was “impaired suppressor function”, the “duration of decreased Treg frequency” value (Tregs; 250 mg/m^2) was “decreased Treg frequency up to day 71” and the “Alpha-fetoprotein-specific T-cell responses” value (Tregs; lower treatment arms) was “induced”. For the same compound, the “absolute and relative frequency of Tregs in the blood of patients” value (Tregs; the two lower doses (150, 250 mg/m^2)) was “induced a decrease”, the “rates of disease control” value (advanced solid tumors; all CYP regimens (oral 50 mg/day, single i.v. 1,000 mg, or both) vs adenovirus only) was “higher rates of disease control” and the “decrease of Treg numbers” value (advanced solid tumors; metronomic groups) was “most effective in decreasing Treg numbers”.
